How the values were obtained:
[1] = target: T1, human dopamine D2 receptor (Homo sapiens, UniProt P14416); experiment: Saturation radioligand binding to membranes of transfected COS-7 cells; design: rescreened with the S1 probe alone to identify those most likely to be full length; expressed in transfected cells; host or cells: COS-7 cells (transient, 16A-pCD-PS DNA)
Method: COS-7 cells were plated at a density of 1×10^6 cells/10 cm dish. One to two days after plating, cells were transfected with 16A-pCD-PS DNA using a modification of the calcium phosphate precipitation procedure.
(§1) Radioligand binding. Cells were scraped 48-72 hours after transfection into 10 ml of PBS/10 cm dish and pelleted at 1000× g. Cells were resuspended in 10 mM Tris, 1 mM EDTA, 5 mM MgCl2 and homogenized with a polytron (Brinkman). A total particulate fraction was prepared by centrifugation at 45,000× g for 15 min. […] Reactions were initiated by addition of 0.4 ml of tissue in binding buffer to 0.1 ml of drugs. […] Reactions were terminated by filtering membranes through Whatman GFC filters using a cell harvester (Brandel). Data were analyzed by nonlinear regression on a VAX II computer using the program DATAPLOT (distributed by the National Technical Information Service).

[2] = target: T1, human dopamine D2 receptor; conditions: 0.7 nM ^3 H-raclopride; transfected COS-7 cells
Method: Expression and Transfection. […] COS-7 cells were plated at a density of 1×10^6 cells/10 cm dish.
as §1

T1 sequence (P14416 1-414 isoform P14416-2): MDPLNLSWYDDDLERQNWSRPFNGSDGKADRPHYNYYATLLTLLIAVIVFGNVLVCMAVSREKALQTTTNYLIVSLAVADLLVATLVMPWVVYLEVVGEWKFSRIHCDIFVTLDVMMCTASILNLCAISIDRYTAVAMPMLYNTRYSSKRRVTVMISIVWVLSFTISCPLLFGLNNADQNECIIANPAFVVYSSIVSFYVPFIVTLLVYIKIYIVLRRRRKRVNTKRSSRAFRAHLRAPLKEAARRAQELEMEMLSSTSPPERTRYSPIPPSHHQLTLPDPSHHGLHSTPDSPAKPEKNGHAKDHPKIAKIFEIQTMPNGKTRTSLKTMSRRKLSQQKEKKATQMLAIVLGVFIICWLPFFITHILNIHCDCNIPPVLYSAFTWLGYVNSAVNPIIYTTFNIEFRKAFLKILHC

Molecule	n (hill number) [2]	further results
CCN1CCC[C@H]1CNC(=O)c1c(O)c(Cl)cc(Cl)c1OC [^3 H-raclopride]		maximum number of binding sites ([1]; COS-7 transfected with 16A-pCD-PS): 800±110 fmole/mg protein
NCCc1ccc(O)c(O)c1 [dopamine]	1.1 ± 0.1	
^3 H-SCH23396		displacable binding to transfected COS-7 cells ([1]; concentrations up to 5 nM, displaced by chlorpromazine): did not show significant displacable binding
CN(C)CCCN1c2ccccc2Sc2ccc(Cl)cc21 [chlorpromazine]	0.9 ± 0.1	
CCN1CCC[C@@H]1CNC(=O)c1cc(S(N)(=O)=O)ccc1OC [(+)sulphride]	1.0 ± 0.1	

Second part, led by results:

n (hill number) [2]	Molecule	further results
1.0 ± 0.1	CN1CCc2cccc3c2[C@H]1Cc1ccc(O)c(O)c1-3 [apomorphine]	
1.2 ± 0.2	CCN1CCC[C@H]1CNC(=O)c1cc(S(N)(=O)=O)ccc1OC [(-)sulphride]	
